Laboratory results published in publication PMC8962522, “Direct interaction of TrkA/CD44v3 is essential for NGF-promoted aggressiveness of breast cancer cells” (Journal of Experimental & Clinical Cancer Research : CR, 2022).

Test system: MDA-MB-231 cells
Assay: Clonogenicity assay, MDA-MB-231
Assay type: cell-based
Details: peptide 50 ng/mL, 2% FBS; versus control cells or scramble peptide; siCD44v3: 10 days after siRNA transfection
Procedure: The clonogenicity assay was performed to assess cell survival. MDA-MB-231 cells (250 cells/mL) were seeded into 6 plate wells (2% FBS medium; 2 mL/well). When the cells attached (within 3 h), they were treated with the peptide (scramble or P4; 50 ng/mL) or no peptide (control) and incubated for 24 h. The next day, a second-round treatment was performed. Three days later, the medium was changed, and the cells were incubated for another 5 days. After 10 days of culture, the medium was removed, and the cells were washed twice (PBS 1×), fixed (4% PAF for 30 min at RT), colored (violet crystal 2%; 30 min; RT) and washed twice (distilled water). Representative pictures of one well were taken, and the colonies were counted.
Therefore, in this study, we assessed TrkA binding to CD44v3 in MDA-MB-231 cells, which were used as TNBC model cells. […] Therefore, we evaluated the physiological consequences of TrkA/CD44v3 complex dissociation induced by CD44v3 mimetic peptide 4 on MDA-MB-231 cell phenotypes (Fig. 4). […] We first determined the effect of CD44v3 on the length-to-width (l/w) ratio of the cells (elongation factor) (Fig. 4C-E). […]
Fig. 4 CD44v3 mimetic peptide 4 inhibits MDA-MB-231 breast cancer cell growth and migration/invasion. Clonogenic MDA-MB-231 cell growth was measured after 10 days in the presence of a scramble peptide (SP) or CD44v3 mimetic peptide (P4) (A, B). […]

In the case of “IDDDEDFISST [Peptide 4, mimetic peptide 4 (…) corresponding to the C-terminal region of CD44v3]”, the “effect on clonogenic growth of MDA-MB-231 cells” value is reported as “reduced the proportion of MDA-MB-231 colony forming units by two-thirds”.
